Measurements taken from patent US20210255193A1, “LYSINE REACTIVE PROBES AND USES THEREOF” (The Scripps Research Institute, priority 2017, published 2021).

Assays:
Assay in all cases: competitive isoTOP-ABPP
Format in all cases: binding
[1] = target: T1, AKR1C3 Aldo-keto reductase family 1 member C3 (Homo sapiens, UniProt P42330); conditions: for isoTOP-ABPP ratio (R) at liganded lysine P42330_K270: sol, 231; for isoTOP-ABPP ratio, lysine P42330_K270: possible other lysine P52895_K270, P17516_K270, Q04828_K270
T1 construct: isoTOP-ABPP experiments performed in cell lysates (in vitro); endogenous in cells; host or cells: soluble proteome of human cancer cell lines (MDA-MB-231; Ramos and Jurkat also prepared)
T1 sequence (P42330 1-323): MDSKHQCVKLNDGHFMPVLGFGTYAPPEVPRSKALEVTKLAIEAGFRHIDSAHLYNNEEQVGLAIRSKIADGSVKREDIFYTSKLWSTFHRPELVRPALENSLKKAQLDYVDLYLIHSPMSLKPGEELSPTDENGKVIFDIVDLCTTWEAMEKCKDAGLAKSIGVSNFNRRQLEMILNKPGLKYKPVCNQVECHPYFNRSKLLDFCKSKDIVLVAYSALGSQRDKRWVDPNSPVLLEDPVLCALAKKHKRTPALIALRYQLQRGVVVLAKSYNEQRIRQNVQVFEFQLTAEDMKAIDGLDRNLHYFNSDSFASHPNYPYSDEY
Outline: (§1)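 Competition format: fragment (50 μM activated ester, 100 μM guanidinylating agent) versus vehicle in lysate, then lysine probe STP-alkyne at 0.1 mM for 1 h. Quantitation by light/heavy TEV-tag MS1 peak areas, reported as R.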

[2] = target: T2, ATP6V1F V-type proton ATPase subunit F (Homo sapiens, UniProt Q16864); conditions: for isoTOP-ABPP ratio (R) at liganded lysine Q16864_K6: sol, 231
T2 construct: isoTOP-ABPP experiments performed in cell lysates (in vitro); endogenous in cells; host or cells: soluble proteome of human cancer cell lines (MDA-MB-231; Ramos and Jurkat also prepared)
Outline: as §1

[3] = target: T3, CDK2 Cyclin-dependent kinase 2 (Homo sapiens, UniProt P24941); conditions: for isoTOP-ABPP ratio (R) at liganded lysine P24941_K33: sol, 231
T3 construct: isoTOP-ABPP experiments performed in cell lysates (in vitro); endogenous in cells; host or cells: soluble proteome of human cancer cell lines (MDA-MB-231; Ramos and Jurkat also prepared)
Outline: as §1

[4] = target: T4, GABARAPL2 Gamma-aminobutyric acid receptor-associated protei (Homo sapiens, UniProt P60520); conditions: for isoTOP-ABPP ratio (R) at liganded lysine P60520_K46: sol, 231
T4 construct: isoTOP-ABPP experiments performed in cell lysates (in vitro); endogenous in cells; host or cells: soluble proteome of human cancer cell lines (MDA-MB-231, Ramos, Jurkat)
Outline: as §1

[5] = target: T5, IMPDH1 Inosine-5-monophosphate dehydrogenase 1 (Homo sapiens, UniProt P20839); conditions: for isoTOP-ABPP ratio (R) at liganded lysine P20839_K208: sol, 231
T5 construct: isoTOP-ABPP experiments performed in cell lysates (in vitro); endogenous in cells; host or cells: soluble proteome of human cancer cell lines (MDA-MB-231; Ramos and Jurkat also prepared)
Outline: as §1

[6] = target: T6, NUDT22 Nucleoside diphosphate-linked moiety X motif 22 (Homo sapiens, UniProt Q9BRQ3); conditions: for isoTOP-ABPP ratio (R) at liganded lysine Q9BRQ3_K60: sol, 231
T6 construct: isoTOP-ABPP experiments performed in cell lysates (in vitro); endogenous in cells; host or cells: soluble proteome of human cancer cell lines (MDA-MB-231; Ramos and Jurkat also prepared)
T6 sequence (Q9BRQ3 1-303): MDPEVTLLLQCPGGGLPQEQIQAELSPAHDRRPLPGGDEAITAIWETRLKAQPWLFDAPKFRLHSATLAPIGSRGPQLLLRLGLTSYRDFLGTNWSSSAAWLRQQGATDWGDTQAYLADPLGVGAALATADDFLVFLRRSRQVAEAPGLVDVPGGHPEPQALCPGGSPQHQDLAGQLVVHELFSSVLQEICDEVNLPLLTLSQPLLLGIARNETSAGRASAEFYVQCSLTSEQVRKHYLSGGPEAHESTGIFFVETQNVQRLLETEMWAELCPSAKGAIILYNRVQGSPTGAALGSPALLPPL
Outline: as §1

T5 sequence (P20839 whole entry): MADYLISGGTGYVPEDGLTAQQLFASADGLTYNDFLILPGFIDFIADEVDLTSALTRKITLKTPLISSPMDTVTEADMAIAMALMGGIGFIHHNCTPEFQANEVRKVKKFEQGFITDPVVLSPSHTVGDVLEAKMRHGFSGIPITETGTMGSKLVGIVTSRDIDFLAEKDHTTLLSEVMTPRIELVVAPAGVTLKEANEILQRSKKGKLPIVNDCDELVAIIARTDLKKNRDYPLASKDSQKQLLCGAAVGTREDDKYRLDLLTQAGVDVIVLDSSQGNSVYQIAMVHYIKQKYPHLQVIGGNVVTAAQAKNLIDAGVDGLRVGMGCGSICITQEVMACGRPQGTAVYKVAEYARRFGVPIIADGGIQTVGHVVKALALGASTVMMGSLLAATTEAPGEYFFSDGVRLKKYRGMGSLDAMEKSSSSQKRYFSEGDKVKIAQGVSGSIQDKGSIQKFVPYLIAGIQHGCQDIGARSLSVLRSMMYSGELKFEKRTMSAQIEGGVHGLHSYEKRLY
T4 sequence (P60520 1-116 limits assumed): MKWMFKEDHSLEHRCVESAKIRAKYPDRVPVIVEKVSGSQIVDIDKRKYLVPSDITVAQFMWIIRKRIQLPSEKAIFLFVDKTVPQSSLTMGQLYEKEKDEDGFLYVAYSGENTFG
T2 sequence (Q16864 whole entry): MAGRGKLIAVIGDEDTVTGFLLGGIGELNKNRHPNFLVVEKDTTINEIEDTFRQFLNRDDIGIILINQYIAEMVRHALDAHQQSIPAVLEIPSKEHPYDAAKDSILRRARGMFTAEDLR

Row | SMILES | isoTOP-ABPP ratio (R) at liganded lysine P42330_K270 ([1]; 50 uM, in vitro) | isoTOP-ABPP ratio (R) at liganded lysine Q16864_K6 ([2]; 50 uM, in vitro) | isoTOP-ABPP ratio (R) at liganded lysine P24941_K33 ([3]; 50 uM, in vitro) | isoTOP-ABPP ratio (R) at liganded lysine P60520_K46 ([4]; 50 uM, in vitro) | isoTOP-ABPP ratio (R) at liganded lysine P20839_K208 ([5]; 50 uM, in vitro) | isoTOP-ABPP ratio (R) at liganded lysine Q9BRQ3_K60 ([6]; 50 uM, in vitro) | further results
1 | O=C(CCc1cn(-c2ccccc2)nc1-c1ccccc1)Oc1ccc([N+](=O)[O-])cc1[N+](=O)[O-] [fragment 29, 2,4-Dinitrophenyl 3-(1,3-diphenyl-1H-pyrazol-4-yl)propanoate] |  |  |  |  |  |  | isoTOP-ABPP reactivity ratio at lysine P42330_K270 ([1]; 50 uM, 231 sol, in vitro): 2.1; isoTOP-ABPP reactivity ratio at lysine Q16864_K6 ([2]; 50 uM, 231 sol, in vitro): 0.8; isoTOP-ABPP reactivity ratio at lysine P24941_K33 ([3]; 50 uM, 231 sol, in vitro): 0.9; isoTOP-ABPP reactivity ratio at lysine P60520_K46 ([4]; 50 uM, 231 sol, in vitro): 0.9; isoTOP-ABPP reactivity ratio at lysine P20839_K208 ([5]; 50 uM, 231 sol, in vitro): 1.3; isoTOP-ABPP reactivity ratio at lysine Q9BRQ3_K60 ([6]; 50 uM, 231 sol, in vitro): 0.8
2 | O=C(Oc1ccc([N+](=O)[O-])cc1[N+](=O)[O-])c1ccc(-c2ccccc2)cc1 [fragment 37, 2,4-Dinitrophenyl [1,1′-biphenyl]-4-carboxylate] | 0.8 | 1.0 | 0.9 | 0.8 | 1.4 | 1.0 | 
3 | O=C(CC12CC3CC(CC(C3)C1)C2)Oc1ccc([N+](=O)[O-])cc1[N+](=O)[O-] [fragment 38, 2,4-Dinitrophenyl 2-(adamantan-1-yl)acetate] | 0.9 | 1.0 | 0.9 | 1.0 | 1.2 |  | 
4 | CC(C)(C)OC(=O)NCCCC(=O)Oc1ccc([N+](=O)[O-])cc1[N+](=O)[O-] [fragment 41, 2,4-Dinitrophenyl 4-((tert-butoxycarbonyl)amino)butanoate] | 0.7 | 1.0 | 1.0 | 1.0 | 1.2 | 20.0 | 
5 | O=C(Oc1ccc([N+](=O)[O-])cc1[N+](=O)[O-])C(c1ccccc1)(c1ccccc1)c1ccccc1 [fragment 42, 2,4-Dinitrophenyl 2,2,2-triphenylacetate] | 0.9 | 1.0 | 0.9 | 0.9 | 1.2 | 0.8 | 
6 | O=C(CCc1ccc2c(c1)OCO2)Oc1ccc([N+](=O)[O-])cc1[N+](=O)[O-] [fragment 45, 2,4-Dinitrophenyl 3-(benzo[d][1,3]dioxol-5-yl)propanoate] |  |  |  |  |  |  | isoTOP-ABPP ratio, lysine P42330_K270 ([1]; 50 uM_231_sol_in vitro): 0.8; isoTOP-ABPP ratio, lysine Q16864_K6 ([2]; 50 uM_231_sol_in vitro): 1.0; isoTOP-ABPP ratio, lysine P24941_K33 ([3]; 50 uM_231_sol_in vitro): 4.6; isoTOP-ABPP ratio, lysine P60520_K46 ([4]; 50 uM_231_sol_in vitro): 1.0; isoTOP-ABPP ratio, lysine P20839_K208 ([5]; 50 uM_231_sol_in vitro): 1.5; isoTOP-ABPP ratio, lysine Q9BRQ3_K60 ([6]; 50 uM_231_sol_in vitro): 1.7
7 | CC(C)(C)OC(=O)N=C(NC(=O)OC(C)(C)C)n1cccn1 [fragment 50, reference compound] |  |  |  |  |  |  | isoTOP-ABPP ratio, lysine P42330_K270 ([1]; 100 uM_231_sol_in vitro): 0.7; isoTOP-ABPP ratio, lysine Q16864_K6 ([2]; 100 uM_231_sol_in vitro): 1.4; isoTOP-ABPP ratio, lysine P24941_K33 ([3]; 100 uM_231_sol_in vitro): 2.3; isoTOP-ABPP ratio, lysine P60520_K46 ([4]; 100 uM_231_sol_in vitro): 20.0; isoTOP-ABPP ratio, lysine P20839_K208 ([5]; 100 uM_231_sol_in vitro): 20.0; isoTOP-ABPP ratio, lysine Q9BRQ3_K60 ([6]; 100 uM_231_sol_in vitro): 1.0
